From patent publication US8658800B2 (priority 2010, dated 2014) come the findings set out here.

A short description of series [1]: logP by HPLC on reversed-phase columns (C 18), EEC Directive 79/831 Annex V.A8. It counts as physicochemical. Conditions: reversed-phase C18 HPLC column; HPLC, reversed-phase C 18, acidic range pH 2.7, 0.1% aqueous formic acid/acetonitrile; read-out: log P. The procedure: The logP values reported in the table above and in the Preparation Examples were determined in accordance with EEC Directive 79/831 Annex V.A8 by HPLC (High Performance Liquid Chromatography) on reversed-phase columns (C 18), with the following methods:
The LC-MS determination in the acidic range is carried out at pH 2.7 using the mobile phases 0.1% aqueous formic acid and acetonitrile (contains 0.1% formic acid), linear gradient from 10% acetonitrile to 95% acetonitrile
Calibration was carried out using unbranched alkan-2-ones (having from 3 to 16 carbon atoms) with known logP values (the logP values were determined by the retention times using linear interpolation between two successive alkanones).

The subject of series [2] is green peach aphid (Myzus persicae). In words: Myzus test (MYZUPE spray treatment). It counts as in vivo. As to conditions: 144 h, sprayed Chinese cabbage discs, after 6 days, read-out: activity (kill of aphids). The procedure:
Myzus Test (MYZUPE Spray Treatment)
Solvents: 78 parts by weight of acetone
(§1) • 1.5 parts by weight of dimethylformamide Emulsifier: 0.5 part by weight of alkylaryl polyglycol ether
(§2) To produce a suitable preparation of active compound, 1 part by weight of active compound is mixed with the stated amount of solvents and emulsifier, and the concentrate is diluted with emulsifier-containing water to the desired concentration.
Discs of Chinese cabbage (Brassica pekinensis) infested by all stages of the green peach aphid (Myzus persicae) are sprayed with an active compound preparation of the desired concentration.
After 6 days, the effect in % is determined. 100% means that all of the aphids have been killed; 0% means that none of the aphids have been killed.

For series [3], the system named is larvae of the mustard beetle (Phaedon cochleariae). In words: Phaedon test (PHAECO spray treatment). Format: in vivo. As to conditions: 168 h, sprayed Chinese cabbage discs, after 7 days, read-out: activity (kill of beetle larvae). How it is done:
Phaedon Test ([…] Spray Treatment) Solvents: 78.0 parts by weight of acetone • • 1.5 parts by weight of dimethylformamide Emulsifier: 0.5 part by weight of alkylaryl polyglycol ether To produce a suitable preparation of active compound, 1 part by weight of active compound is mixed with the stated amount of solvents and emulsifier, and the concentrate is diluted with emulsifier-containing water to the desired concentration. Discs of Chinese cabbage (Brassica pekinensis) are sprayed with an active compound preparation of the desired concentration and, after drying, populated with larvae of the mustard beetle (Phaedon cochleariae).

Series [4] concerns caterpillars of the armyworm (Spodoptera frugiperda). In words: Spodoptera frugiperda test (SPODFR spray treatment). It counts as in vivo. As to conditions: foliar, 168 h, sprayed maize leaf discs, after 7 days, read-out: activity (kill of caterpillars). The procedure:
Spodoptera frugiperda Test (SPODFR Spray Treatment)
Solvents: 78.0 parts by weight of acetone
as §1, §2
Discs of maize leaves (Zea mays) are sprayed with an active compound preparation of the desired concentration and, after drying, populated with caterpillars of the armyworm (Spodoptera frugiperda).
After 7 days, the effect in % is determined. 100% means that all caterpillars have been killed; 0% means that none of the caterpillars have been killed.

A further series deals with adult Musca domestica. The series is described as follows: Musca domestica test (MUSCDO). Format: in vivo. Conditions: treated sponge, after 2 days. The procedure: Musca domestica Test (MUSCDO)
(§3) Solvent: dimethyl sulphoxide
(§4) To produce a suitable preparation of active compound, 10 mg of active compound are mixed with 0.5 ml of dimethyl sulphoxide and the concentrate is diluted with water to the desired concentration.
Vessels containing a sponge treated with the active compound preparation of the desired concentration are populated with adult Musca domestica.
After 2 days, the kill in % is determined 100% means that all of the flies have been killed; 0% means that none of the flies have been killed.

Another series relates to Boophilus microplus. The series is described as follows: Boophilus microplus test (BOOPMI injection). Format: in vivo. As to conditions: 10 μg/animal, injection into the abdomen, after 7 days. The procedure:
Boophilus microplus Test (BOOPMI Injection)
as §3
To produce a suitable preparation of active compound, 10 mg of active compound are mixed with 0.5 ml of solvent and the concentrate is diluted with solvent to the desired concentration.
The active compound solution is injected into the abdomen (Boophilus microplus), and the animals are transferred into dishes and stored in a climate-controlled room. The activity is assessed by […] of fertile eggs.
After 7 days, the effect in % is determined 100% means that none of the ticks has laid any fertile eggs.

In a further series the test system is Lucilia cuprina larvae. The series is described as follows: Lucilia cuprina test (LUCICU). Conditions: 100 ppm, treated horse meat, after 2 days. It counts as in vivo. How it is done: Lucilia cuprina Test (LUCICU)
as §3, §4
Vessels containing horse meat treated with the active compound of the desired concentration are populated with about 20 Lucilia cuprina larvae.
After 2 days, the kill in % is determined 100% means that all of the larvae have been killed; 0% means that none of the larvae have been killed.

For the compound `Cc1nc(C(F)(F)F)nn1Cc1cc(C(=O)Nc2c(Cl)cc(Cl)cc2C(=O)O)n(-c2ncccc2Cl)n1` [Compound 19], the chromatographic logP in series [1] amounted to 2.68. For the same compound, the pest or weed control at 100 g/ha in series [2] amounted to 80%.

Take `O=C(O)c1cc(Cl)cc(Cl)c1NC(=O)c1cc(Cn2cc(C(F)(F)F)nn2)nn1-c1ncccc1Cl` [Compound 28]: the pest or weed control at 100 g/ha in series [3] and in series [2] was 100% throughout. In addition, the chromatographic logP in series [1] came to 2.69.

As for `COC(=O)c1cc(F)cc(C)c1NC(=O)c1cc(Cn2nnc(C(F)(F)F)n2)nn1-c1ncccc1Cl` [Compound 29], the pest or weed control at 100 g/ha amounted to 83% in series [3] and 100% in series [4]. Moreover, the chromatographic logP in series [1] is 3.33.

Regarding `Cc1cc(Cl)cc(C(=S)NC(C)(C)C)c1NC(=O)c1cc(Cn2nnc(C(F)(F)F)n2)nn1-c1ncccc1Cl` [Compound 6], the pest or weed control at 100 g/ha in series [3] and in series [4] was 100% in each case. Moreover, the “efficacy (kill)” value with adult Musca domestica (100 ppm) is given as 90%; in the series with Lucilia cuprina larvae, 100%. The chromatographic logP in series [1] is 4.33. The “activity (100% = none of the ticks has laid any fertile eggs)” value in the series on Boophilus microplus was determined as 100%.

Regarding `O=C(O)c1cc(Cl)cc(Cl)c1NC(=O)c1cc(Cn2nnc(C(F)(F)F)n2)nn1-c1ncccc1Cl` [Compound 21], the pest or weed control at 100 g/ha in series [3] was found to be 100%; in series [4], 83%. Moreover, the chromatographic logP in series [1] stood at 3.04.

As to `CNC(=S)c1cc(I)cc(C)c1NC(=O)c1cc(Cn2nnc(C(F)(F)F)n2)nn1-c1ncccc1Cl` [Compound 36], the pest or weed control at 100 g/ha in series [3], in series [4] and in series [2] was 100% in each case. Further, the chromatographic logP in series [1] is 3.73.

`Cc1cc(Cl)cc(C(=O)O)c1NC(=O)c1cc(Cn2nnc(C(F)(F)F)n2)nn1-c1ncccc1Cl` [Compound 30]: the chromatographic logP in series [1] was determined as 3.05. The pest or weed control at 100 g/ha was found to be 83% in series [4] and 80% in series [2].

Regarding `Cc1cc(C#N)cc(C(=O)O)c1NC(=O)c1cc(Cn2nnc(C(F)(C(F)(F)F)C(F)(F)F)n2)nn1-c1ncccc1Cl` [Compound 13], the values for the pest or weed control at 100 g/ha in series [3], in series [4] and in series [2] were 100%, 100% and 80%, respectively. Also, the chromatographic logP in series [1] worked out at 3.36.

In the case of `Cc1cc(I)cc(C(=O)O)c1NC(=O)c1cc(Cn2nnc(C(F)(F)C(F)(F)F)n2)nn1-c1ncccc1Br` [Compound 2], the pest or weed control at 100 g/ha in series [3] worked out at 100%; in series [4] it was 100%; in series [2] it was 80%. Moreover, the chromatographic logP in series [1] is 3.69.

With `Cc1cc(C#N)cc(C(=O)O)c1NC(=O)c1cc(Cn2nnc(C(F)(F)F)n2)nn1-c1ncccc1Cl` [Compound 14], the chromatographic logP in series [1] was determined as 2.65. For the same compound, the pest or weed control at 100 g/ha was determined as 100% in series [4] and 80% in series [2].

In the case of `O=C(O)c1cc(Cl)cc(Cl)c1NC(=O)c1cc(Cn2cnc(C(F)F)n2)nn1-c1ncccc1Cl` [Compound 12], the pest or weed control at 500 g/ha in series [3] (500 g/ha) and in series [4] (500 g/ha) was 100% each time. For the same compound, the chromatographic logP in series [1] was determined as 2.2. The “efficacy (kill)” value in the series on Lucilia cuprina larvae turned out to be 90%.

`Cc1cc(C#N)cc(C(=S)NC(C)(C)C)c1NC(=O)c1cc(Cn2nnc(C(F)(F)F)n2)nn1-c1ncccc1Cl` [Compound 31]: the pest or weed control at 100 g/ha is 100% in series [3], 83% in series [4] and 90% in series [2]. Besides, the chromatographic logP in series [1] came out at 3.75.

For the compound `O=C(O)c1cc(Cl)cc(Cl)c1NC(=O)c1cc(Cn2ncc(C(F)(F)F)n2)nn1-c1ncccc1Cl` [Compound 26], the pest or weed control at 100 g/ha turned out to be 100% in series [3], 100% in series [4] and 90% in series [2]. Moreover, the chromatographic logP in series [1] was determined as 3.03.

For the compound `CNC(=S)c1cc(Cl)cc(C)c1NC(=O)c1cc(Cn2nnc(C(F)(F)F)n2)nn1-c1ncccc1Cl` [Compound 7], the pest or weed control at 100 g/ha in series [3], in series [4] and in series [2] was 100% each time. Further, the “efficacy (kill)” value in the series on adult Musca domestica (20 ppm) was 90%; in the series with Lucilia cuprina larvae it was 100%. Also, the chromatographic logP in series [1] came to 3.42. Also, in the series on Boophilus microplus, the “activity (100% = none of the ticks has laid any fertile eggs)” value turned out to be 100%.

Consider `Cc1cc(C#N)cc(OC(F)F)c1NC(=O)c1cc(Cn2nnc(C(F)(F)F)n2)nn1-c1ncccc1Cl` [Compound 9], for which the pest or weed control at 100 g/ha is 100% in series [3], 100% in series [4] and 90% in series [2]. Also, the “efficacy (kill)” value in the series with adult Musca domestica (100 ppm) came to 80%; in the series with Lucilia cuprina larvae, 100%. Moreover, the chromatographic logP in series [1] was 2.85.

Turning to `Cc1cc(Br)cc(OC(F)F)c1NC(=O)c1cc(Cn2nnc(C(F)(F)F)n2)nn1-c1ncccc1Cl` [Compound 8], the pest or weed control at 100 g/ha in series [3] and in series [4] was 100% each time. Besides, the chromatographic logP in series [1] stood at 3.77. Besides, the “efficacy (kill)” value in the series on Lucilia cuprina larvae was found to be 100%.
